Numbered stars: 1 amine (or outer) side, 2 acyl side, 3 side chain; on linkers, the order of the positions; unused ones are H or OH. Bridge positions count the residues as written; N and C are the ends. Square brackets hold non-standard residues; d marks the D form. Peptide text beside a SMILES is read from it. * marks the point of attachment. hPhe(3-Cl-4-CF3) = N[C@@H](CCc1ccc(C(F)(F)F)c(Cl)c1)C(=O)O; NMePhe(4-CF3) = CN[C@@H](Cc1ccc(C(F)(F)F)cc1)C(=O)O; NMeAbu(4,4,4-F3) = CN[C@@H](CC(F)(F)F)C(=O)O; NMePhe(3-Cl) = CN[C@@H](Cc1cccc(Cl)c1)C(=O)O; NMePhe(4-Me) = CN[C@@H](Cc1ccc(C)cc1)C(=O)O; NMedβ3hAla = C[C@H](CC(=O)[*:2])N(C)[*:1]; X77 = O=C(CN(CCN1CCC(F)(F)CC1)[*:1])[*:2]; Phe(3-I) = N[C@@H](Cc1cccc(I)c1)C(=O)O; Pro(4,4-F2) = O=C(O)[C@@H]1CC(F)(F)CN1; Phe(2-Me) = Cc1ccccc1C[C@H](N)C(=O)O; NMeCha = CN[C@@H](CC1CCCCC1)C(=O)O; NMeChg = CN[C@H](C(=O)O)C1CCCCC1; NMeF = CN[C@@H](Cc1ccccc1)C(=O)O; NMeI = CC[C@H](C)[C@H](NC)C(=O)O; NMeD = CN[C@@H](CC(=O)O)C(=O)O; NMeL = CN[C@@H](CC(C)C)C(=O)O; Chg = N[C@H](C(=O)O)C1CCCCC1; NMeV = CN[C@H](C(=O)O)C(C)C; d(β3hA) = C[C@@H](N)CC(=O)O; Iva = CC[C@](C)(N)C(=O)O; Morpholide = C1CN(*)CCO1; NMeA = CN[C@@H](C)C(=O)O; NMeAib = CNC(C)(C)C(=O)O; Piperidide = C1CCN(*)CC1; dNMeA = CN[C@H](C)C(=O)O; Ac5c = NC1(C(=O)O)CCCC1; Aze = O=C(O)[C@@H]1CCN1; Sar = CNCC(=O)O
Test system: Human pancreatic cancer cell line AsPC-1 (G12D mutation Kras)
Test: AsPC-1 cell growth inhibition (AsPC-1 CGI)
Assay type: cell-based
Conditions: read-out: AsPC-1 cell growth inhibition, 50% growth inhibitory concentration (IC50 value); 96 hours, CellTiter-Glo, values classified in ranges
Protocol: Test compounds were serially dilated with dimethyl sulfoxide, and 200 nL was then dispensed to a U-bottom 96-well plate using Labcyte Echo. […] The cell suspension was dispensed to a. plate containing a test compound at 100 μL per well and incubated at 37° C. in a 5% carbon dioxide gas incubator. 96 hours later, 80 μL of CellTiter-Glo (Promega) was added to each well and fluorescence was measured.

Compound	IC50
CC(C)C[C@H]1C(=O)N[C@@H](CO)C(=O)N(C)CC(=O)N(C)CC(=O)N(C)[C@@H](CC2CCCCC2)C(=O)N(C)CC(=O)N[C@@H](CCc2ccc(C(F)(F)F)c(Cl)c2)C(=O)N2CCC[C@H]2C(=O)NC2(CCCC2)C(=O)N(C)[C@@H](C2CCCCC2)C(=O)N(C)[C@H](C(=O)N2CCCCC2)CC(=O)N1C [Compound 1799] ([NMeL]S[Sar][Sar][NMeCha][Sar][hPhe(3-Cl-4-CF3)]P[Ac5c][NMeChg][NMeD]-Piperidide; lactam N-11)	> 500 nM
CC[C@H](C)[C@@H]1NC(=O)[C@H](CC(C)C)N(C)C(=O)C[C@@H](C)NC(=O)[C@H](C(C)C)N(C)C(=O)C2(CCCC2)NC(=O)[C@@H]2CCCN2C(=O)[C@H](CCc2ccc(C(F)(F)F)c(Cl)c2)NC(=O)CN(C)C(=O)[C@H](CC2CCCCC2)N(C)C(=O)CN(C)C(=O)CN(CCN2CCC(F)(F)CC2)C1=O [Compound 635] (cyclo([Ac5c][NMeV][d(β3hA)][NMeL]I[X77][Sar][NMeCha][Sar][hPhe(3-Cl-4-CF3)]P))	> 500 nM
CC(C)C[C@H]1C(=O)N[C@@H](C2CCCCC2)C(=O)N(C)CC(=O)N(C)CC(=O)N(C)[C@@H](CC2CCCCC2)C(=O)N(C)CC(=O)N[C@@H](CCc2ccc(C(F)(F)F)c(Cl)c2)C(=O)N2CCC[C@H]2C(=O)NC2(CCCC2)C(=O)N(C)[C@@H](C(C)C)C(=O)N(C)[C@H](C(=O)N2CCCCC2)CC(=O)N1C [Compound 281] ([NMeL][Chg][Sar][Sar][NMeCha][Sar][hPhe(3-Cl-4-CF3)]P[Ac5c][NMeV][NMeD]-Piperidide; lactam N-11)	> 500 nM
CC[C@H](C)[C@@H]1NC(=O)[C@H](CC(C)C)N(C)C(=O)C[C@@H](C(=O)N2CCCCC2)N(C)C(=O)[C@H](CC(C)C)NC(=O)C(C)(C)N(C)C(=O)[C@H](Cc2ccccc2C)NC(=O)[C@H](Cc2cccc(I)c2)NC(=O)CN(C)C(=O)[C@H](Cc2ccc(C)cc2)N(C)C(=O)[C@@H]2CCN2C(=O)CN(C)C1=O [Compound 335] ([NMeL]I[Sar][Aze][NMePhe(4-Me)][Sar][Phe(3-I)][Phe(2-Me)][NMeAib]L[NMeD]-Piperidide; lactam N-11)	> 500 nM
CC[C@H](C)[C@@H]1NC(=O)[C@H](CC(F)(F)F)N(C)C(=O)C[C@@H](C(=O)N2CCOCC2)N(C)C(=O)[C@H](C2CCCCC2)N(C)C(=O)C2(CCCC2)NC(=O)[C@@H]2CC(F)(F)CN2C(=O)[C@H](CCc2ccc(C(F)(F)F)c(Cl)c2)NC(=O)CN(C)C(=O)[C@H](Cc2ccc(C(F)(F)F)cc2)N(C)C(=O)CN(C)C(=O)CN(C)C1=O [Compound 1182] ([NMeAbu(4,4,4-F3)]I[Sar][Sar][NMePhe(4-CF3)][Sar][hPhe(3-Cl-4-CF3)][Pro(4,4-F2)][Ac5c][NMeChg][NMeD]-Morpholide; lactam N-11)	≤ 20 nM
CC[C@H](C)[C@@H]1NC(=O)[C@H](CC(C)C)N(C)C(=O)C[C@@H](C(=O)N2CCCCC2)N(C)C(=O)[C@H](CC(C)C)NC(=O)C(C)(C)N(C)C(=O)[C@H](Cc2ccccc2)NC(=O)[C@H](Cc2cccc(I)c2)NC(=O)CN(C)C(=O)[C@H](Cc2ccc(C)cc2)N(C)C(=O)[C@@H]2CCN2C(=O)[C@H](C)N(C)C1=O [Compound 1015] ([NMeL]I[NMeA][Aze][NMePhe(4-Me)][Sar][Phe(3-I)]F[NMeAib]L[NMeD]-Piperidide; lactam N-11)	> 500 nM
CC[C@H](C)[C@@H]1NC(=O)[C@H](CC(C)C)N(C)C(=O)C[C@@H](C(=O)N2CCCCC2)N(C)C(=O)[C@H](C(C)C)N(C)C(=O)[C@](C)(CC)NC(=O)[C@@H]2CCCN2C(=O)[C@H](CCc2ccc(C(F)(F)F)c(Cl)c2)NC(=O)CN(C)C(=O)[C@H](CC2CCCCC2)N(C)C(=O)[C@@H]2CCN2C(=O)[C@H](C)N(C)C1=O [Compound 394] ([NMeL]I[NMeA][Aze][NMeCha][Sar][hPhe(3-Cl-4-CF3)]P[Iva][NMeV][NMeD]-Piperidide; lactam N-11)	> 500 nM
CC[C@H](C)[C@@H]1NC(=O)[C@H](C)N(C)C(=O)C[C@@H](C(=O)N2CCCCC2)N(C)C(=O)[C@H](C(C)C)N(C)C(=O)C2(CCCC2)NC(=O)[C@@H]2CCCN2C(=O)[C@H](CCc2ccc(C(F)(F)F)c(Cl)c2)NC(=O)[C@@H](C)N(C)C(=O)[C@H](Cc2ccccc2)N(C)C(=O)[C@@H]2CCCN2C(=O)CN(C)C1=O [Compound 1806] ([NMeA]I[Sar]P[NMeF][dNMeA][hPhe(3-Cl-4-CF3)]P[Ac5c][NMeV][NMeD]-Piperidide; lactam N-11)	> 500 nM
CC[C@H](C)[C@@H]1NC(=O)[C@H](CC(C)C)N(C)C(=O)C[C@@H](C)NC(=O)[C@H](C(C)C)N(C)C(=O)C2(CCCC2)NC(=O)[C@@H]2CCCN2C(=O)[C@H](CCc2ccc(C(F)(F)F)c(Cl)c2)NC(=O)CN(C)C(=O)[C@H](Cc2cccc(Cl)c2)N(C)C(=O)CN(C)C(=O)CN(C)C1=O [Compound 1623] (cyclo([Ac5c][NMeV][d(β3hA)][NMeL]I[Sar][Sar][NMePhe(3-Cl)][Sar][hPhe(3-Cl-4-CF3)]P))	> 500 nM
CC[C@H](C)[C@@H]1NC(=O)[C@H](CC(C)C)N(C)C(=O)C[C@@H](C)N(C)C(=O)[C@H]([C@@H](C)CC)N(C)C(=O)C2(CCCC2)NC(=O)[C@@H]2CCCN2C(=O)[C@H](CCc2ccc(C(F)(F)F)c(Cl)c2)NC(=O)CN(C)C(=O)[C@H](Cc2ccc(C)cc2)N(C)C(=O)CN(C)C(=O)CN(C)C1=O [Compound 1792] (cyclo([Ac5c][NMeI][NMedβ3hAla][NMeL]I[Sar][Sar][NMePhe(4-Me)][Sar][hPhe(3-Cl-4-CF3)]P))	≤ 20 nM

Reference: patent US20240148821A1, “PHARMACEUTICAL USE OF CYCLIC PEPTIDE COMPOUND” (CHUGAI SEIYAKU KABUSHIKI KAISHA, priority 2021, published 2024)
